# Data taken from patent US20260070945A1, “MACROCYCLIC IMMUNOMODULATORS” (Bristol-Myers Squibb Company, priority 2022, published 2026).
# *1 amine or outer side, *2 acyl side, *3 side chain or, on linkers, in order; H or OH if unused. Where a SMILES comes first, the peptide text is derived from it. Bridges are numbered along the chain shown (N, C = ends). [ ]: non-standard residue; d: D form. The star is where a group is joined. ξ: configuration not given here. Phe(4-CH2CH2COOH) = N[C@@H](Cc1ccc(CCC(=O)O)cc1)C(=O)O; Phe(3-CF3) = N[C@@H](Cc1cccc(C(F)(F)F)c1)C(=O)O; Phe(4-CF3) = N[C@@H](Cc1ccc(C(F)(F)F)cc1)C(=O)O; Phe(4-COOH) = N[C@@H](Cc1ccc(C(=O)O)cc1)C(=O)O; d(γGlu) = O=C(O)[C@@H](CCC(=O)[*:2])N[*:1]; Bip = N[C@@H](Cc1ccc(-c2ccccc2)cc1)C(=O)O; NH(CH2)14COOH = O=C(O)CCCCCCCCCCCCCCN*; Phe(3-Me) = Cc1cccc(C[C@H](N)C(=O)O)c1; γGlu = O=C(O)[C@H](CCC(=O)[*:2])N[*:1]; NH(CH2)12COOH = O=C(O)CCCCCCCCCCCCN*; Cyclopropanecarbonyl = O=C(C1CC1)*; Val(3-OH) = CC(C)(O)[C@H](N)C(=O)O; 4Pal = N[C@@H](Cc1ccncc1)C(=O)O; Cha = N[C@@H](CC1CCCCC1)C(=O)O; Cit = NC(=O)NCCC[C@H](N)C(=O)O; Ile(3ξ) = CCC(C)[C@H](N)C(=O)O; Thr(3ξ) = CC(O)[C@H](N)C(=O)O; 12Ado = NCCCCCCCCCCCC(=O)O; Carboxymethyl = O=C(O)C*; NMeA = CN[C@@H](C)C(=O)O; Orn = NCCC[C@H](N)C(=O)O; Aun = NCCCCCCCCCCC(=O)O; Dab = NCC[C@H](N)C(=O)O; AEEA = NCCOCCOCC(=O)O
# Target: T1, PD-1/PD-L1 interaction (PE-labeled human PD-L1-Ig binding to Jurkat cell line over-expressing human PD-1) (Homo sapiens, UniProt Q15116)
# T1 construct: expressed in transfected cells; host or cells: Jurkat
# T1 sequence (Q15116 25-288): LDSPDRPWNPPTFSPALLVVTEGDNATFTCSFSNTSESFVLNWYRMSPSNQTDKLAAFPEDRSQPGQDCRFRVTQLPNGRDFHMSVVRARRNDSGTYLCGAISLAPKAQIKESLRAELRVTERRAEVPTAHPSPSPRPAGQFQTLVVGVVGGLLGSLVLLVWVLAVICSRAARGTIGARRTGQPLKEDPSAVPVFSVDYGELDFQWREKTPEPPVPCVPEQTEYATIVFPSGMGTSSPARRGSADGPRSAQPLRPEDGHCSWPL
# Assay: Jurkat-PD-1 Cell Binding High-Content Screening Assay (CBA)
# Details: Jurkat-hPD-1 cells, PE-labeled PD-L1-Ig 20 nM final; read-out: Jurkat HPD1 PDL1 IC50
# In short: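 Jurkat-hPD-1 cells (8×10^3/well) in DMEM with 10% fetal calf serum were preincubated with compound for 2 h at 37 °C. PE-labeled PD-L1-Ig was then added at 20 nM final for 1 h. Cells were fixed in paraformaldehyde with Hoechst 33342, washed and imaged by high-content imaging.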
row,Compound,IC50
1,Cc1cccc(C[C@@H]2NC(=O)[C@H](CC(=O)O)NC(=O)[C@H](Cc3ccc(OCC(=O)O)cc3)NC(=O)[C@H](Cc3ccncc3)NC(=O)CSC[C@@H](C(=O)N[C@@H](CCCN)C(=O)N[C@@H](CO)C(=O)NCCCCCCCCCCCC(=O)O)NC(=O)[C@H](C(C)O)NC(=O)[C@H](C(C)C)NC(=O)[C@H](CC3CCCCC3)NC(=O)[C@H](CCN)NC(=O)[C@@H](CC(C)C)NC(=O)[C@H](C)N(C)C(=O)[C@H](CCCCNC(=O)C3CC3)NC(=O)[C@H](Cc3ccc(-c4ccccc4)cc3)NC(=O)[C@H](Cc3ccc(O)cc3)NC2=O)c1 (stereo partly drawn) [Example 2404] ({CH2CO}-[4Pal]Y(Carboxymethyl)D[Phe(3-Me)]Y[Bip]K(Cyclopropanecarbonyl)[NMeA][dL][Dab][Cha]V[Thr(3ξ)]C[Orn]S[12Ado]-OH; thioether N-14),40.9 nM
2,COC[C@@H]1NC(=O)CSC[C@@H](C(=O)N[C@@H](CCN)C(=O)NCCOCCOCC(=O)N[C@@H](CCC(=O)NCCOCCOCC(=O)NCCCCCCCCCCCCC(=O)O)C(=O)O)NC(=O)[C@H](CCCCNC(C)=O)NC(=O)[C@H](C(C)(C)O)NC(=O)[C@H](CC2CCCCC2)NC(=O)[C@H](CCN)NC(=O)[C@@H](CC(C)C)NC(=O)[C@H](C)N(C)C(=O)[C@H](CCC(N)=O)NC(=O)[C@H](Cc2ccc(-c3ccccc3)cc2)NC(=O)[C@H](Cc2ccc(C(=O)O)cc2)NC(=O)[C@H](Cc2cccc(C(F)(F)F)c2)NC(=O)[C@H](CC(=O)O)NC(=O)[C@H](Cc2ccc(OCC(=O)O)cc2)NC1=O [Example 1165] ({CH2CO}-S(Me)Y(Carboxymethyl)D[Phe(3-CF3)][Phe(4-COOH)][Bip]Q[NMeA][dL][Dab][Cha][Val(3-OH)]K(Ac)C[Dab][AEEA][γGlu][AEEA]-{NH(CH2)12COOH}; thioether N-14),21.8 nM
3,CC[C@H](C)[C@@H]1NC(=O)[C@H](Cc2ccc(-c3ccccc3)cc2)NC(=O)[C@H](CC(C)C)NC(=O)[C@H](Cc2c[nH]c3ccccc23)NC(=O)[C@H](CC(=O)O)NC(=O)[C@H](Cc2ccc(C(=O)O)cc2)NC(=O)[C@H](Cc2ccc(OCC(=O)O)cc2)NC(=O)CSC[C@@H](C(=O)NCCOCCOCC(=O)NCCCCCCCCCCC(=O)O)NC(=O)[C@H](CO)NC(=O)[C@H](C(C)C)NC(=O)[C@H](CC2CCCCC2)NC(=O)[C@H](CCN)NC(=O)[C@@H](CC(C)C)NC(=O)[C@H](C)N(C)C1=O [Example 1069] ({CH2CO}-Y(Carboxymethyl)[Phe(4-COOH)]DWL[Bip]I[NMeA][dL][Dab][Cha]VSC[AEEA][Aun]-OH; thioether N-14),40.7 nM
4,Cc1cccc(C[C@@H]2NC(=O)[C@H](CC(=O)O)NC(=O)[C@H](Cc3ccc(C(=O)O)cc3)NC(=O)[C@H](Cc3ccc(OCC(=O)O)cc3)NC(=O)CSC[C@@H](C(=O)N[C@@H](CCN)C(=O)NCCCCCCCCCCC(=O)O)NC(=O)[C@H](CCCNC(N)=O)NC(=O)[C@H](C(C)C)NC(=O)[C@H](CC3CCCCC3)NC(=O)[C@H](CCN)NC(=O)[C@@H](CC(C)C)NC(=O)[C@H](C)N(C)C(=O)[C@H](C(C)C)NC(=O)[C@H](Cc3ccc(-c4ccccc4)cc3)NC(=O)[C@H](CC(C)C)NC2=O)c1 [Example 2294] ({CH2CO}-Y(Carboxymethyl)[Phe(4-COOH)]D[Phe(3-Me)]L[Bip]V[NMeA][dL][Dab][Cha]V[Cit]C[Dab][Aun]-OH; thioether N-14),19.9 nM
5,CC(C)C[C@@H]1NC(=O)[C@H](Cc2c[nH]c3ccccc23)NC(=O)[C@H](CC(=O)O)NC(=O)[C@H](Cc2ccc(C(=O)O)cc2)NC(=O)[C@H](Cc2ccc(OCC(=O)O)cc2)NC(=O)CSC[C@@H](C(=O)N[C@@H](CCCCN)C(=O)NCCCCCCCCCCC(=O)O)NC(=O)[C@H](CCCN)NC(=O)[C@H](C(C)C)NC(=O)[C@H](CC2CCCCC2)NC(=O)[C@H](CCN)NC(=O)[C@@H](CC(C)C)NC(=O)[C@H](C)N(C)C(=O)[C@H](C(C)C)NC(=O)[C@H](Cc2ccc(-c3ccccc3)cc2)NC1=O [Example 2159] ({CH2CO}-Y(Carboxymethyl)[Phe(4-COOH)]DWL[Bip]V[NMeA][dL][Dab][Cha]V[Orn]CK[Aun]-OH; thioether N-14),17.8 nM
6,CC(C)C[C@@H]1NC(=O)[C@H](Cc2c[nH]c3ccccc23)NC(=O)[C@H](CC(=O)O)NC(=O)[C@H](Cc2ccc(C(=O)O)cc2)NC(=O)[C@H](Cc2ccc(OCC(=O)O)cc2)NC(=O)CSC[C@@H](C(=O)NCCOCCOCC(=O)N[C@@H](CCN)C(=O)NCCCCCCCCCCC(=O)O)NC(=O)[C@H](CCCNC(N)=O)NC(=O)[C@H](C(C)C)NC(=O)[C@H](CC2CCCCC2)NC(=O)[C@H](CCN)NC(=O)[C@@H](CC(C)C)NC(=O)[C@H](C)N(C)C(=O)[C@H](C(C)C)NC(=O)[C@H](Cc2ccc(-c3ccccc3)cc2)NC1=O [Example 2156] ({CH2CO}-Y(Carboxymethyl)[Phe(4-COOH)]DWL[Bip]V[NMeA][dL][Dab][Cha]V[Cit]C[AEEA][Dab][Aun]-OH; thioether N-14),16.5 nM

# Same assay, conditions: PE-labeled PD-L1-Ig 20 nM final, Jurkat-hPD-1 cells; read-out: Jurkat HPD1 PDL1 IC50
row,Compound,IC50
1,CC(=O)NCCCC[C@@H]1NC(=O)[C@H](C(C)(C)O)NC(=O)[C@H](CC2CCCCC2)NC(=O)[C@H](CCN)NC(=O)[C@@H](CC(C)C)NC(=O)[C@H](C)N(C)C(=O)[C@H](CCC(N)=O)NC(=O)[C@H](Cc2ccc(-c3ccccc3)cc2)NC(=O)[C@H](Cc2ccc(C(=O)O)cc2)NC(=O)[C@H](Cc2cccc(C)c2)NC(=O)[C@H](CC(=O)O)NC(=O)[C@H](Cc2ccc(OCC(=O)O)cc2)NC(=O)[C@H](Cc2ccc(OCC(=O)O)cc2)NC(=O)CSC[C@@H](C(=O)N[C@@H](CCN)C(=O)NCCOCCOCC(=O)NCCCCCCCCCCCCCCC(=O)O)NC1=O [Example 2576] ({CH2CO}-Y(Carboxymethyl)Y(Carboxymethyl)D[Phe(3-Me)][Phe(4-COOH)][Bip]Q[NMeA][dL][Dab][Cha][Val(3-OH)]K(Ac)C[Dab][AEEA]-{NH(CH2)14COOH}; thioether N-14),103 nM
2,CC(=O)NCCCC[C@@H]1NC(=O)[C@H](C(C)(C)O)NC(=O)[C@H](CC2CCCCC2)NC(=O)[C@H](CCN)NC(=O)[C@@H](CC(C)C)NC(=O)[C@H](C)N(C)C(=O)[C@H](CCC(N)=O)NC(=O)[C@H](Cc2ccc(-c3ccccc3)cc2)NC(=O)[C@H](Cc2ccc(C(F)(F)F)cc2)NC(=O)[C@H](Cc2cccc(C)c2)NC(=O)[C@H](CC(=O)O)NC(=O)[C@H](Cc2ccc(OCC(=O)O)cc2)NC(=O)[C@H](Cc2ccc(OCC(=O)O)cc2)NC(=O)CSC[C@@H](C(=O)N[C@@H](CCN)C(=O)NCCCCCCCCCCCCCCC(=O)O)NC1=O [Example 2618] ({CH2CO}-Y(Carboxymethyl)Y(Carboxymethyl)D[Phe(3-Me)][Phe(4-CF3)][Bip]Q[NMeA][dL][Dab][Cha][Val(3-OH)]K(Ac)C[Dab]-{NH(CH2)14COOH}; thioether N-14),210 nM
3,CCC(C)[C@@H]1NC(=O)[C@H](Cc2ccc(-c3ccccc3)cc2)NC(=O)[C@H](C(C)C)NC(=O)[C@H](Cc2c[nH]c3ccccc23)NC(=O)[C@H](CC(=O)O)NC(=O)[C@H](Cc2ccc(C(=O)O)cc2)NC(=O)[C@H](Cc2cnc[nH]2)NC(=O)CSC[C@@H](C(=O)N[C@@H](CCN)C(=O)NCCOCCOCC(=O)NCCOCCOCC(=O)NCCCCCCCCCCC(=O)O)NC(=O)[C@H](C(C)O)NC(=O)[C@H](C(C)O)NC(=O)[C@H](CC2CCCCC2)NC(=O)[C@H](CCN)NC(=O)[C@@H](CC(C)C)NC(=O)[C@H](C)N(C)C1=O (stereo partly drawn) [Example 2529] ({CH2CO}-H[Phe(4-COOH)]DWV[Bip][Ile(3ξ)][NMeA][dL][Dab][Cha][Thr(3ξ)][Thr(3ξ)]C[Dab][AEEA][AEEA][Aun]-OH; thioether N-14),4.4 nM
4,CC(=O)NCCCC[C@@H]1NC(=O)[C@H](C(C)(C)O)NC(=O)[C@H](CC2CCCCC2)NC(=O)[C@H](CCN)NC(=O)[C@@H](CC(C)C)NC(=O)[C@H](C)N(C)C(=O)[C@H](CCC(N)=O)NC(=O)[C@H](Cc2ccc(-c3ccccc3)cc2)NC(=O)[C@H](Cc2ccc(C(=O)O)cc2)NC(=O)[C@H](Cc2cccc(C(F)(F)F)c2)NC(=O)[C@H](CC(=O)O)NC(=O)[C@H](Cc2ccc(OCC(=O)O)cc2)NC(=O)[C@H](Cc2ccc(OCC(=O)O)cc2)NC(=O)CSC[C@@H](C(=O)N[C@@H](CCN)C(=O)NCCOCCOCC(=O)N[C@H](CCC(=O)N[C@H](CCC(=O)NCCOCCOCC(=O)NCCCCCCCCCCCCCCC(=O)O)C(=O)O)C(=O)O)NC1=O [Example 2655] ({CH2CO}-Y(Carboxymethyl)Y(Carboxymethyl)D[Phe(3-CF3)][Phe(4-COOH)][Bip]Q[NMeA][dL][Dab][Cha][Val(3-OH)]K(Ac)C[Dab][AEEA][d(γGlu)][d(γGlu)][AEEA]-{NH(CH2)14COOH}; thioether N-14),584 nM
5,CC(C)C[C@H]1NC(=O)[C@H](C)N(C)C(=O)[C@H](Cc2ccc(OCC(=O)O)cc2)NC(=O)[C@H](Cc2ccc(-c3ccccc3)cc2)NC(=O)[C@H](Cc2ccc(C(=O)O)cc2)NC(=O)[C@H](Cc2cccc(C(F)(F)F)c2)NC(=O)[C@H](CC(=O)O)NC(=O)[C@H](Cc2ccc(OCC(=O)O)cc2)NC(=O)[C@H](C(C)O)NC(=O)CSC[C@@H](C(=O)N[C@@H](CCN)C(=O)NCCCCCCCCCCC(=O)O)NC(=O)[C@H](CCC(=O)O)NC(=O)[C@H](C(C)C)NC(=O)[C@H](CC2CCCCC2)NC(=O)[C@H](CCN)NC1=O (stereo partly drawn) [Example 2574] ({CH2CO}-[Thr(3ξ)]Y(Carboxymethyl)D[Phe(3-CF3)][Phe(4-COOH)][Bip]Y(Carboxymethyl)[NMeA][dL][Dab][Cha]VEC[Dab][Aun]-OH; thioether N-14),4.4 nM
6,CC(=O)NCCCC[C@@H]1NC(=O)[C@H](C(C)(C)O)NC(=O)[C@H](CC2CCCCC2)NC(=O)[C@H](CCN)NC(=O)[C@@H](CC(C)C)NC(=O)[C@H](C)N(C)C(=O)[C@H](CCC(N)=O)NC(=O)[C@H](Cc2ccc(-c3ccccc3)cc2)NC(=O)[C@H](Cc2ccc(CCC(=O)O)cc2)NC(=O)[C@H](Cc2cccc(C(F)(F)F)c2)NC(=O)[C@H](CC(=O)O)NC(=O)[C@H](Cc2ccc(OCC(=O)O)cc2)NC(=O)[C@H](Cc2ccc(OCC(=O)O)cc2)NC(=O)CSC[C@@H](C(=O)N[C@@H](CCN)C(=O)NCCOCCOCC(=O)NCCCCCCCCCCC(=O)O)NC1=O [Example 2597] ({CH2CO}-Y(Carboxymethyl)Y(Carboxymethyl)D[Phe(3-CF3)][Phe(4-CH2CH2COOH)][Bip]Q[NMeA][dL][Dab][Cha][Val(3-OH)]K(Ac)C[Dab][AEEA][Aun]-OH; thioether N-14),3.3 nM
